# Patent US11472788B2, “Benzoimidazoles as selective inhibitors of indoleamine 2,3-dioxygenases” (BEIGENE, LTD., priority 2017, dated 2022)
# Biological target: cellular IDO1 in HeLa cells (Homo sapiens (Human), UniProt P14902)
# Assay: HeLa Cell-Based IDO1 Kyn (Kynurenine) Production Assay
# Details: IFN-γ induced IDO1, 48 hours incubation, Kyn absorbance at 480 nm
# Experimental: HeLa Cell-Based IDO1 Kyn (Kynurenine) Production Assay:
# The inhibitory activity of IDO1 inhibitors is determined by using a colorimetric reaction to measure Kyn generated from L-Trp (L-Tryptophon) oxidation by cellular IDO1 in HeLa cells after induction of IDO1 expression by IFN-γ.
# Hela cells were obtained from the American Type Culture Collection and recovered in 10% FBS-containing phenol red-free DMEM medium. Cells were plated onto a 96-well plate (100 μl/well) at 8000 cells per well and kept at 37° C. in a humidified incubator supplied with 5% CO2. 4 hours later, Human recombinant IFN-γ (8901SC, CST) was added to cells (final concentration 100 ng/mL) to stimulate endogenous IDOL. Compounds at different concentrations diluted in dimethylsulfoxide (DMSO) were added simultaneously with IFN-γ and 0.4 mM L-Trp. Cells were kept at 37° C. in a humidified incubator supplied with 5% CO2. After 48 hours of incubation, 100 μl supernatant from each well was removed to a new plate. The protein in the medium was precipitated with the addition of 8 μl 6N trichloroacetic acid. The plate was incubated at 60° C. for 30 minutes and then centrifugation at 2500 rpm for 10 minutes to remove sediments. 80 μl supernatants were carefully removed to a new clean plate and added with an equal volume of 2% 4-(Dimethylamino)benzaldehyde (D2004, sigma) dissolved in glacial acetic acid. The absorbance at 480 nm wavelength derived from Kyn was measured using a PHERAstar FS plate reader (BMG LABTECH). The IC5C for each compound was derived from fitting the dose-response data to the four-parameter logistic model by using XLfit software (IDBS).
# cellular IDO1 in HeLa cells, sequence (P14902 whole entry): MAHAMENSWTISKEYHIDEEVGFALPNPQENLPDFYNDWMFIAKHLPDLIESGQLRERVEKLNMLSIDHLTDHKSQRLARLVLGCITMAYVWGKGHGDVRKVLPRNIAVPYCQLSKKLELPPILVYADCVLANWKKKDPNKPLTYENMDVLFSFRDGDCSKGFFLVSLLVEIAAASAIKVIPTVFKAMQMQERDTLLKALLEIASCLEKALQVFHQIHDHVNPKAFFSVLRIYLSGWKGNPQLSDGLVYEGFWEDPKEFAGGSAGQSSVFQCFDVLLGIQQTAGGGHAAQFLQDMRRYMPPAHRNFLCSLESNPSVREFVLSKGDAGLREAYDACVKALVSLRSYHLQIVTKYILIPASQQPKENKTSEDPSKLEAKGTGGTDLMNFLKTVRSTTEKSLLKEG
row,EC50 [nM],SMILES
1,> 10000,"Fc1ccc2nccc(C3CCC(c4nc5cc(Cl)c(F)cc5[nH]4)CC3)c2c1 (single isomer, unassigned) [Example C1a, 4-(4-(5-chloro-6-fluoro-1H-benzo[d]imidazol-2-yl)cyclohexyl)-6-fluoroquinoline]"
2,24,"Fc1ccc2nccc(C3CCC(c4nc5cc(Cl)c(F)cc5[nH]4)CC3)c2c1 (single isomer, unassigned) [Example C1b, 4-(4-(5-chloro-6-fluoro-1H-benzo[d]imidazol-2-yl)cyclohexyl)-6-fluoroquinoline]"
3,0.96,Cc1noc(-c2ccc3nc([C@@H](C)[C@H]4CC[C@@H](c5ccnc6ccc(F)cc65)CC4)[nH]c3c2)n1 [B149]
4,10.9,CC(c1nc2c(ccc3ncccc32)[nH]1)[C@H]1CC[C@@H](c2ccnc3ccc(F)cc32)CC1 (stereo partly drawn) [B150]
5,62.9,C[C@H](c1nc2cc(F)c(-c3cccnc3)cc2[nH]1)[C@H]1CC[C@@H](c2ccnc3ccc(F)cc32)CC1 [B152]
6,3.1,C[C@@H](c1nc2cc(-c3ccccc3)c(F)cc2[nH]1)[C@H]1CC[C@@H](c2ccnc3ccc(F)cc32)CC1 [B156]
7,6.9,C[C@@H](c1nc2cc(C(=O)NC3CC3)c(F)cc2[nH]1)[C@H]1CC[C@@H](c2ccnc3ccc(F)cc32)CC1 [B158]
8,1.6,CCOC(=O)c1ccc2[nH]c(C(C)[C@H]3CC[C@@H](c4ccnc5ccc(F)cc54)CC3)nc2c1 (stereo partly drawn) [B161]
9,4.86,CC(C)OC(=O)c1ccc2nc(C(C)[C@H]3CC[C@@H](c4ccnc5ccc(F)cc54)CC3)[nH]c2c1 (stereo partly drawn) [B168]
10,1.7,CC(c1nc2c(ccc3ccccc32)[nH]1)[C@H]1CC[C@@H](c2ccnc3ccc(F)cc32)CC1 (stereo partly drawn) [B175]
11,2.9,CC(C)OC(=O)c1ccc2nc([C@H](C)[C@H]3CC[C@@H](c4ccnc5ccc(F)cc54)CC3)[nH]c2c1 [B176]
12,6.9,COC(=O)c1cc(C)c2[nH]c(C(C)C3CCC(c4ccnc5ccc(F)cc45)CC3)nc2c1 (stereo not drawn) [B177]
13,2.7,CC(c1nc2cc(-c3ccccc3)c(F)cc2[nH]1)C1CCC(c2ccnc3ccc(F)cc23)CC1 (stereo not drawn) [B181]
14,17.1,Cc1cc(C(=O)NC2CCC2)cc2nc([C@H](C)[C@H]3CC[C@@H](c4ccnc5ccc(F)cc54)CC3)[nH]c12 [B187]
15,788,Cc1cc(C(=O)NC2CCC2)cc2nc([C@@H](C)[C@H]3CC[C@@H](c4ccnc5ccc(F)cc54)CC3)[nH]c12 [B188]
16,1.14,COC(=O)c1ccc2nc(C(C)[C@H]3CC[C@@H](c4ccnc5ccc(F)cc54)CC3)[nH]c2c1F (stereo partly drawn) [B191]
17,8.97,CC(c1nc2cc(C(=O)NC3CC3)c(F)c(F)c2[nH]1)[C@H]1CC[C@@H](c2ccnc3ccc(F)cc32)CC1 (stereo partly drawn) [B192]
18,> 1000,COC(=O)c1cccc2nc([C@@H](C)[C@H]3CC[C@@H](c4ccnc5ccc(F)cc54)CC3)[nH]c12 [B208]
19,1.8,COC(=O)c1cc2nc(C(C)[C@H]3CC[C@@H](c4ccnc5ccc(F)cc54)CC3)[nH]c2c(F)c1F (stereo partly drawn) [B213]
20,84,CC(c1nc2ccc(C(=O)NC3COC3)cc2[nH]1)[C@H]1CC[C@@H](c2ccnc3ccc(F)cc32)CC1 (stereo partly drawn) [B214]
21,1.8,C[C@@H](c1nc2cc(-c3ccccc3)c(F)cc2[nH]1)[C@H]1CC[C@@H](c2ccnc3ccc(F)cc32)CC1 [B218]
22,13.7,C[C@H](c1nc2cc(-c3ccccc3)c(F)cc2[nH]1)[C@H]1CC[C@@H](c2ccnc3ccc(F)cc32)CC1 [B219]
23,72,"Fc1ccc2nccc([C@H]3CC[C@H](Cc4nc5cc(C(F)(F)F)ccc5[nH]4)CC3)c2c1 [Example A3a, 6-fluoro-4-((1s,4s)-4-((5-(trifluoromethyl)-1H-benzo[d]imidazol-2-yl)methyl)cyclohexyl)quinoline]"
24,6.8,"Fc1ccc2nccc([C@H]3CC[C@@H](Cc4nc5cc(C(F)(F)F)ccc5[nH]4)CC3)c2c1 [Example A3b, 6-fluoro-4-((1r,4r)-4-((5-(trifluoromethyl)-1H-benzo[d]imidazol-2-yl)methyl)cyclohexyl)quinoline]"
